Measurements reported in patent publication US20050069496A1, “Methods of screening, determining, developing and utilizing negative cross resistance toxins” (priority 2001, published 2005).
Where two headings read alike, the source gives them in different places. Marks after values point to notes of the source that are not given here.

Key:
[1] = test system: Canton-S (DDT susceptible flies) and para^tsl (DDT resistant flies); assay: Initial screen of DDT and 8 pyrethroids, Canton-S versus para^tsl flies; format: in vivo, Drosophila melanogaster; conditions: for Fly Line Preferentially Killed by the Toxin: across the doses
Procedure: A test was conducted utilizing an initial screen of DDT and 8 pyrethroids against Canton-S (DDT susceptible flies) and para^tsl (DDT resistant flies). […]

[2] = test system: Mycosphaeralla graminicola Wild type and Tri R1 resistant strains; assay: Cross-resistance comparison of resistant and wild type fungal lines; format: cell-based; conditions: for Resistance Ratio: Tri R1 resistant versus wild type; for Possible Resistance Type: after Bonferroni correction; for Resistance Type: compared to resistance to Triadimenol, not tested statistically
Excerpt: In one embodiment, large-scale screens are utilized to determine NCR toxins that can be used against fungicide resistance. For such a screen, there will be one of three outcomes: (1) positive cross-resistance, (2) neutral (no cross-resistance), and (3) negative cross-resistance. Table 3 illustrates the EC50 for each toxin as given on two lines of Mycosphaeralla graminicola. The EC50 is the effective concentration that will kill fifty percent of the organisms in a test population. One line is Triadimenol susceptible and the other line is resistant to this compound. An estimate is made of the nature of resistance of these two lines to nine other toxins. The resistance is defined as (i) positive cross-resistance, (ii) negative cross-resistance or (iii) no cross-resistance (neutral) as compared to the resistance to Triadimenol (1RS,2RS;1RS,2RS)-1-(4chlorophenoxy)-3,3-dimethyl-1-(1H-1,2,4-trizol-1-yl) butan-1-o. Such a comparison is useful in a large-scale screen for NCR toxins for fungicides.
Three of the compounds listed in Table 3 are indicated as potential NCR toxins (Triflumizole, Ferarimol, and Nuarimol). In one embodiment, screening resources are used efficiently, i.e. the potential for identifying false-positives is minimized, by focusing on investigating potential NCR toxins through a test with a correction factor, such as a Bonferroni correction. Alternatively, other correction factors can be used including, but not limited to, Duncan's method. […] Where differential toxicity occurs between the two fungal lines on a given toxin, a difference in toxicity between the two lines is determined. If the fungal line that was resistant to the first toxin (e.g. Triadimenol) is now more susceptible to the new toxin (e.g. Triflumizole, Ferarimol, or Nuarimol) potential NCR toxin pairs are identified.
Differences between toxins, in terms of NCR activity, may be indicated where such differences may not truly exist (type I error in statistical hypothesis testing). In the present example, the confidence interval is extended using, for example, Bonferroni correction, which is needed to control for false positives in detection of NCR toxins in large-screen tests. A NCR factor is declared if the second toxin requires a lower dosage to kill the resistant line as compared to the wild type fungal line or lines. The consequences of a failure to use Bonferroni correction normally results in higher numbers of false positives in a large-scale screen. Toxins that are selected on the basis of no correction may still be considered as putative NCR toxins, but deserving less consideration than those identified using the correction method. A Bonferroni correction is thus performed on the three putative NCR toxins (and the reference toxin) to determine if one of the toxins is a NCR factor.
Table 4 illustrates the Bonferroni corrected data (from Table 3 above) of the reference compound (Triadimenol) and the three putative NCR toxins for fungicide resistance. The correction was made based on four compounds tested, each with minimally five doses to calculate the effective concentration fifty (EC50).

Canton-S flies = assay: Fly mortality bioassay, Canton-S; format: in vivo, Drosophila melanogaster; conditions: for Resistance Ratio: Canton-S, LD50 over LD50 of para^tsl males
Procedure: (§1) A test was conducted utilizing an initial screen of DDT and 8 pyrethroids against Canton-S (DDT susceptible flies) and para^tsl (DDT resistant flies).
(§2) As a further step in the test, heterozygotes were tested with either deltamethrin or DDT.

para^tsl flies = assay: Fly mortality bioassay, para^tsl; format: in vivo, Drosophila melanogaster; conditions: for Resistance Ratio: Para^tsl
Procedure: as §1, §2

heterozygous fly lines [3] = conditions: stated as known; cited from earlier work
heterozygous fly lines [4] = assay: Fly mortality bioassay, heterozygotes; format: in vivo, Drosophila melanogaster
Procedure: as §2
An additional test was conducted to determine if DDT and deltamethrin applied at the same time killed the heterozygotes.
FIG. 17 graphically illustrates the application of deltamethrin by itself 220, the application of DDT by itself 222, and the application of both deltamethrin and DDT at the same time 224 to para^tsl flies, Canton-S flies, and heterozygotes.

TF-FVIIa complex = TF-FVIIa complex (Homo sapiens, UniProt P08709); conditions: Inhibitor concentration ± standard error; read-out: FX activation (IC50); cited from earlier work
[5] = test system: Drosophila sodium channel, para, resistance mutation line; conditions: mutation not observed in nature; cited from earlier work

TF-FVIIa complex, sequence (P08709 213-466 limits assumed): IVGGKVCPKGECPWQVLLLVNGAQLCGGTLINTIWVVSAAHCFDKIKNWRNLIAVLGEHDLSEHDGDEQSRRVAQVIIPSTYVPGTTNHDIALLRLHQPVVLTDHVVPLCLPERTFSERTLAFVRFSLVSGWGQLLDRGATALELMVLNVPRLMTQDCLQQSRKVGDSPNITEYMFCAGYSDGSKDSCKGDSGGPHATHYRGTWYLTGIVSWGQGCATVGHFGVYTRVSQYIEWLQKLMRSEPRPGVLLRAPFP
TF-FVIIa complex, sequence (P08709 61-212 limits assumed): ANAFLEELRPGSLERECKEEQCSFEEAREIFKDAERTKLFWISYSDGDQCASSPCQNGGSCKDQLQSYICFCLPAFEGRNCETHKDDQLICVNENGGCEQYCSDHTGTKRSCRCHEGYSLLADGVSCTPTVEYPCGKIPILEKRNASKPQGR
TF-FVIIa complex, sequence (P13726 33-295 partner): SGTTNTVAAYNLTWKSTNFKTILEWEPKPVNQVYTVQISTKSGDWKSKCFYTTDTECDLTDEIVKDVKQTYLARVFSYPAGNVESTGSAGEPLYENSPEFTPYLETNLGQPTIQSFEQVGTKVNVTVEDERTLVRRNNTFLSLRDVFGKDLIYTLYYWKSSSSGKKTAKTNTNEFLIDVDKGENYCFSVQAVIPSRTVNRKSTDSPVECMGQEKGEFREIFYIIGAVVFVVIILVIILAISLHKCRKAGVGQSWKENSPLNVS

CC(C)[C@H](C(=O)O[C@H](C#N)c1cccc(Oc2ccccc2)c1)c1ccc(Cl)cc1 [Asana]
Fly Line Preferentially Killed by the Toxin [1]: Neither

OC(c1ccc(F)cc1)(c1cncnc1)c1ccccc1Cl (stereo not shown) [Nuarimol]
Resistance Ratio [2]: 0.4
Possible Resistance Type [2]: Negative
Resistance Type [2]: Negative

C=CCOC(Cn1ccnc1)c1ccc(Cl)cc1Cl (stereo not shown) [Imazalil]
Resistance Ratio [2]: 5.0
Resistance Type [2]: Positive

CC(C)(C)C(O)C(Oc1ccc(Cl)cc1)n1cncn1 (stereo not drawn) [Triadimenol, (1RS,2RS;1RS,2RS)-1-(4chlorophenoxy)-3,3-dimethyl-1-(1H-1,2,4-trizol-1-yl) butan-1-o]
Resistance Ratio [2]: 31

Clc1ccc(C(c2ccc(Cl)cc2)C(Cl)(Cl)Cl)cc1 [DDT]
Fly Line Preferentially Killed by the Toxin [1]: Canton-S
Percent Dead Cantons-S (Canton-S flies; Dose 0.2): 11.7%
Percent Dead Cantons-S (Canton-S flies; Dose 0.5): 8.3%
Percent Dead Cantons-S (Canton-S flies; Dose 1): 6.7%
Percent Dead Cantons-S (Canton-S flies; Dose 2): 15.0%
Percent Dead Cantons-S (Canton-S flies; Dose 5): 35.0%
Percent Dead Cantons-S (Canton-S flies; Dose 8): 48.3%
Percent Dead Cantons-S (Canton-S flies; Dose 10): 43.3%
Percent Dead Cantons-S (Canton-S flies; Dose 15): 75.0%
Percent Dead Cantons-S (Canton-S flies; Dose 20): 71.7%
Percent Dead Para^tsl (para^tsl flies; Dose 0.2): 13.3%
Percent Dead Para^tsl (para^tsl flies; Dose 0.5): 0%
Percent Dead Para^tsl (para^tsl flies; Dose 1): 0%
Percent Dead Para^tsl (para^tsl flies; Dose 2): 3.3%
Percent Dead Para^tsl (para^tsl flies; Dose 5): 6.7%
Percent Dead Para^tsl (para^tsl flies; Dose 8): 23.3%
Percent Dead Para^tsl (para^tsl flies; Dose 10): 13.3%
Percent Dead Para^tsl (para^tsl flies; Dose 15): 8.3%
Percent Dead Para^tsl (para^tsl flies; Dose 20): 6.7%
Resistance of heterozygotes (heterozygous fly lines [3]): heterozygotes are resistant to DDT

CC1(C)[C@H](C(=O)O[C@H](C#N)c2cccc(Oc3ccccc3)c2)[C@@H]1C=C(Br)Br [Deltamethrin]
Fly Line Preferentially Killed by the Toxin [1]: Para^tsl
Fly Line Preferentially Killed by the Toxin ([1]; listed as deltamethrin): more toxic to para^tsl flies than to Canton-S flies
Preferential killing when tested by individual doses ([1]; individual doses): preferentially killed para^tsl flies
Resistance Ratio (Canton-S flies; Female): 24.7
Resistance Ratio (Canton-S flies; Male): 9.9
Percent Dead Cantons-S (Canton-S flies; Dose 0.2): 31.7%
Percent Dead Cantons-S (Canton-S flies; Dose 0.5): 56.7%
Percent Dead Cantons-S (Canton-S flies; Dose 1): 26.7%
Percent Dead Cantons-S (Canton-S flies; Dose 2): 93.3%
Percent Dead Cantons-S (Canton-S flies; Dose 5): 100%
Percent Dead Cantons-S (Canton-S flies; Dose 8): 96.7%
Percent Dead Cantons-S (Canton-S flies; Dose 10): 98.3%
Percent Dead Cantons-S (Canton-S flies; Dose 15): 100%
Percent Dead Cantons-S (Canton-S flies; Dose 20): 98.3%
Percent Dead Para^tsl (para^tsl flies; Dose 0.2): 98.3%
Percent Dead Para^tsl (para^tsl flies; Dose 0.5): 100%
Percent Dead Para^tsl (para^tsl flies; Dose 1): 85.0%
Percent Dead Para^tsl (para^tsl flies; Dose 2): 100%
Percent Dead Para^tsl (para^tsl flies; Dose 5): 100%
Percent Dead Para^tsl (para^tsl flies; Dose 8): 100%
Percent Dead Para^tsl (para^tsl flies; Dose 10): 98.3%
Percent Dead Para^tsl (para^tsl flies; Dose 15): 100%
Percent Dead Para^tsl (para^tsl flies; Dose 20): 100%
Resistance Ratio (para^tsl flies; Female, LD50 over LD50 of para^tsl males): 1.4
Resistance Ratio (para^tsl flies; Male, denominator line): 1.0*
Resistance Ratio (heterozygous fly lines [4]; Heterozygotes, Female, LD50 over LD50 of para^tsl males): 21.5
Resistance of heterozygotes (heterozygous fly lines [4]; from Table 8): resistant to deltamethrin and resistance is dominant

C=CCC1=C(C)C(OC(=O)C2C(C=C(C)C)C2(C)C)CC1=O [D-trans allethrin]
Fly Line Preferentially Killed by the Toxin [1]: Neither

CC(C)=CC1C(C(=O)OCc2coc(Cc3ccccc3)c2)C1(C)C (stereo not shown) [Resmethrin]
Fly Line Preferentially Killed by the Toxin [1]: Para^tsl

consensus sequence from the hard randomization, C (MEEWEVLCWTWETCERGEGQ), Z-domain fusion [C-Z]
IC50 (TF-FVIIa complex): 5.9 ± 0.9 nM

OC(c1ccc(Cl)cc1)(c1cncnc1)c1ccccc1Cl (stereo not shown) [Ferarimol]
Resistance Ratio [2]: 0.3
Possible Resistance Type [2]: Negative
Resistance Type [2]: Negative

CC(Cc1ccc(C(C)(C)C)cc1)CN1C[C@@H](C)O[C@@H](C)C1 (stereo partly shown) [Fenpropimorph]
Resistance Ratio [2]: 0.9
Resistance Type [2]: Neutral

CC1(C)C(C=C(Cl)Cl)C1C(=O)OCc1cccc(Oc2ccccc2)c1 (stereo not shown) [Permethrin]
Fly Line Preferentially Killed by the Toxin [1]: Para^tsl
Fly Line Preferentially Killed by the Toxin ([1]; listed as permethrin): more toxic to para^tsl flies than to Canton-S flies

CC1(C)[C@H](/C=C(\Cl)C(F)(F)F)[C@@H]1C(=O)O[C@@H](C#N)c1cccc(Oc2ccccc2)c1 [PP321]
Fly Line Preferentially Killed by the Toxin [1]: Neither

CC1(C)C(C=C(Cl)Cl)C1C(=O)OC(C#N)c1ccc(F)c(Oc2ccccc2)c1 (stereo not shown) [Tempo]
Fly Line Preferentially Killed by the Toxin [1]: Para^tsl

O=c1c2cc(F)ccc2nc(-n2cncn2)n1-c1ccc(Cl)cc1Cl [Fluquinconazole]
Resistance Ratio [2]: 0.4
Resistance Type [2]: Negative

CCCOC/C(=N\c1ccc(Cl)cc1C(F)(F)F)n1ccnc1 [Triflumizole]
Resistance Ratio [2]: 0.3
Possible Resistance Type [2]: Neutral (n.s.)†
Resistance Type [2]: Negative

CC(C)(C)C(O)(CCc1ccc(Cl)cc1)Cn1cncn1 (stereo not shown) [Tebuconazole]
Resistance Ratio [2]: 3.3
Resistance Type [2]: Positive

Cc1c(F)c(F)c(COC(=O)[C@H]2[C@@H](/C=C(\Cl)C(F)(F)F)C2(C)C)c(F)c1F [PP993]
Fly Line Preferentially Killed by the Toxin [1]: Canton-S

C[Si](Cn1cncn1)(c1ccc(F)cc1)c1ccc(F)cc1 [Flusilazole]
Resistance Ratio [2]: 4.2
Resistance Type [2]: Positive

CCCN(CCOc1c(Cl)cc(Cl)cc1Cl)C(=O)n1ccnc1 [Prochloraz]
Resistance Ratio [2]: 3.3
Resistance Type [2]: Positive

B1: AaIT: a protein isolated from Scorpion toxin (protein, UniProt P01497 19-88, looked up)
Beta-insect excitatory toxin 1: KKNGYAVDSSGKAPECLLSNYCNNECTKVHYADKGYCCLLSCYCFGLNDDKKVLEISDTRKSYCDTTIIN
NCR in a resistance mutation line [5]: no NCR
